In patent US9902761B2, “Polypeptides, nucleic acids and uses thereof” (AGENCY FOR SCIENCE, TECHNOLOGY AND RESEARCH, priority 2013, dated 2018):
Entries after “also recorded” stand apart in the source; their conditions may differ.

Tests used:
CXCR4 = CXCR4 (Homo sapiens, UniProt P61073); assay: PathHunter β-Arrestin CXCR4 assay, antagonist mode with SDF-1; format: cell-based; conditions: SDF-1 at EC80 concentration
Description: To detect activation of CXCR4 by ELA or SDF-1, recombinant ELA or SDF-1 were added in increasing concentrations for 90-180 minutes to cells stably expressing CXCR4 coupled to a downstream reporter. β-Arrestin recruitment was measured using the PathHunter® β-Arrestin CXCR4 assay (DiscoveRx). Interaction of CXCR4 with Arrestin was detected by Enzyme Fragment Complementation (EFC) between two complementary domains of β-galactosidase (β-Gal), one fused to CXCR4 and the other fused to β-Arrestin. β-Arrestin recruitment to CXCR4 results in complementation of the two domains to generate β-Gal activity. % Ac ? vity=100%×(mean RLU of test sample−mean RLU of vehicle control)/(mean MAX control ligand−mean RLU of vehicle control). To detect antagonism of SDF-1 by ELA, the assay was run in antagonist mode by measuring the EC50 of ELA in the presence of SDF-1 at EC80 concentration. To detect synergism between ELA and SDF-1, the assay was run in positive allosteric mode by measuring the EC50 of ELA in the presence of SDF-1 at EC20 concentration.

[1] = myocardial ischaemia-reperfusion injury, APELIN experiments repeated with ELABELA; format: in vivo; conditions: administered during reperfusion
From the text: Peptides 2009; 30:1144-52. • Simpkin J C, Yellon D M, Davidson S M, Lim S Y, Wynne A M, Smith C C. […] Basic Res Cardiol 2007; 102:518-28.

hESCs [2] = assay: xCELLigence real time growth assay, cell counts and colony size of hESCs; format: cell-based, human
Description: Feeder-free hESCs were cultured in clumps in mTSER1 (Stem Cell Technologies) on Matrigel (BD 354277).
(§1) hESCs were dissociated into single cells using Accutase (Stem Cell Technologies) and plated in the presence of 10 μM Y-27632 (ROCK inhibitor) for 12 hours (Watanabe et al., 2007).
For xCELLigence real time growth assays, 4000 cells were plated per well of an E-plate (ACEA Biosciences) with media changes every 48 hours.
Recombinant ELA was added at 2.5 uM (or 10 μg/ml). Cell cycle studies were performed with Click-iT EDU staining kit (Invitrogen) and by performing a double thymidine block (2.5 mM thymidine; 16 hour block, 8 hour release, 16 hour block) followed by DAPI staining for DNA content at the indicated times following release.

HIV-1 NL43 = assay: HIV inhibition assay in P4C5 HeLa cells (β-gal activity); format: cell-based; conditions: CXCR4-tropic strain
hESCs [3] = assay: uptake of FITC-labeled recombinant peptide by hESCs (immunofluorescence); format: cell-based, human
[4] = erectile dysfunction, APELIN experiments repeated with ELABELA; conditions: in vivo
From the text: J Sex Med. 2013 Apr. 11. doi: 10.11 l/jsm.12158.

hESCs [5] = assay: FACS of stem cell surface markers SSEA3 and TRA-1-60 in hESCs; format: cell-based, human
hESCs [6] = assay: embryoid body differentiation of ELA-treated hESCs (qPCR); format: cell-based, human
Description: Embryoid body differentiation was performed by plating 1 million cells per well of an Aggrewell 400 plate in Aggrewell Medium (Stem Cell Technologies) followed by harvesting and replating into low-adhesion plates (Corning).
After the indicated time periods, embryoid bodies were harvested and RNA extracted using RNeasy kit ([…]). qPCR reactions were carried out using either Universal FastSlart SYBR Green Mastermix (Roche) or using the Universal Probe Library system (Roche) in tandem with Taqman Fast Mastermix (Invitrogen). Primer sequences can be found in Table E1.

hESCs [7] = assay: survival of hESCs after single-cell dissociation (anoikis); format: cell-based, human; conditions: with or without Y-27632
Description: as §1

hESCs [8] = assay: directed endoderm differentiation of hESCs, SOX17+ cell count; format: cell-based, human; conditions: 2.5 uM ELA peptide up to day 3, count on day 5
Description: Shef4TetR5-shELA and Shef4TetR5-shβ2M cells were cultured in the presence (shELA and shβ2M respectively) or absence (Control) of 20 ng/ml doxycycline for 1 passage (4 days) and dissociated with Accutase. […] 24 hours later, the media was changed to Endo differentiation media 1 [RPMI 1640 (Gibco), 1× B-27 supplement (Invitrogen), 50 ng/ml of Activin A (R&D Systems), 25 ng/ml BMP4 (R&D Systems) and 50 ng/ml bFGF (Invitrogen)] for 3 days. On day 3, the media was changed to Endo differentiation media 2 (RPMI 1640, B27, 50 ng/ml Activin) for 2 more days of culture. Rescue experiments were performed by adding 2.5 uM of ELA peptide to Shef4TetR5-shELA concurrently with doxycycline up to day 3, when the ELA peptide is no longer necessary as judged by downregulation of endogenous ELA.
On day 5, cells were fixed with 4% paraformaldehyde and stained with α SOX17 (AF1924, R&D Systems) and DAPI. For each well, three different randomly selected fields were imaged and the number of nuclei staining positive of SOXI 7 and DAPI were counted using a custom macro in ImageJ. A minimum of two wells per condition was used for each experiment, and a minimum of two independent experiments were performed to generate the results.

[9] = pulmonary arterial hypertension, APELIN experiments repeated with ELABELA; conditions: in vivo
From the text: Am J Physiol Heart Circ Physiol 2009; 296:H2007-14.

hESCs [10] = assay: stress-induced apoptosis of hESCs by ActinomycinD; format: cell-based, human

Chain of CXCR4 (P61073 whole entry, the tested form may be a part): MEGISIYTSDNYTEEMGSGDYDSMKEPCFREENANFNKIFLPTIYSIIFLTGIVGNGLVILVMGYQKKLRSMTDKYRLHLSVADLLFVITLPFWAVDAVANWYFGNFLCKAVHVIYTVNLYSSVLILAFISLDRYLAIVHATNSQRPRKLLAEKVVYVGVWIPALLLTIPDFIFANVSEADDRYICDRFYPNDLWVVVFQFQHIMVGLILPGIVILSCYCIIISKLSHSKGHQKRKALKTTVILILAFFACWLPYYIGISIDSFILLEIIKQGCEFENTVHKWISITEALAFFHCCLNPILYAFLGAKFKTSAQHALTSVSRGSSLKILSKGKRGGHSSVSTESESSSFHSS

Sequence: QRPVNLTMRRKLRKHNCLQRRCMPLHSRVPFP [ELA]
- antagonism of SDF1-mediated CXCR4 activation (CXCR4): preventing SDF1-mediated CXCR4 activation
- infarct size [1]: significantly decrease infarct size
- rescue of the growth of shELA hESCs (hESCs [2]; addition of recombinant peptide to shELA hESCs): entirely rescued to normal levels
- concentration range in which the recombinant peptide is bioactive (hESCs [2]; hESCs): bioactive only in the μM range; also recorded: works in the μM range
- inhibition of infection with HIV-1 NL43 (HIV-1 NL43): inhibits infection
- concentration at which ELA inhibits HIV (HIV-1 NL43; HeLa cells, B-Gal activity after 36-48 hrs of infection): 10 to 40 µM
- uptake by hESCs (hESCs [3]): rapidly up-taken by hESCs
- erectile function [4]: significant restoration of erectile function
- levels of cell surface markers SSEA3 and TRA-1-60 (hESCs [5]): unchanged levels
- lineage bias during embryoid body differentiation (hESCs [6]): not biased towards mesoderm or endoderm lineages
- survival following dissociation (anoikis) (hESCs [7]): able to increase survival following dissociation
- rescue of SOX17+ endoderm differentiation of shELA hESCs (hESCs [8]): entirely rescued
- symptoms of pulmonary arterial hypertension [9]: alleviates symptoms of pulmonary arterial hypertension
- levels of MCL-1 (hESCs [10]): rescued with exogenous ELA
- levels of P53 protein following exposure to stress (hESCs [10]): no apparent effect
- BAX localisation (hESCs [10]; mitochondria versus cytoplasm): remained primarily in the cytoplasm
